A value given as a limit tells only on which side of the number the result lay.

The subject of one test is pyroglutamylated CD47 (pE-CD47) in KBM7 cells. Kind of test: Assay 6 - cell-based potency assay (pE-CD47 CC2C6 staining vs total CD47). The conditions noted are these: 72 hours, CC2C6 signal, read-out: Cell Pot. Assay No. 6. Also on record: species or system human. As for the experimental part:
Cells were spun for 4 minutes at 1500 rpm and washed once with PBS/0.5% BSA. Cells were spun down again and the supernatant was removed and incubated in 100 uL antibody staining solution (PBS/0.5% BSA/0.1 μg/mL DAPI (4′,6-diamidino-2-phenylindole, ThermoFisher Scientific) and a mixture of 1:500 FITC-conjugated anti-human CD47 clone 2D3, which recognizes total CD47 irrespective of its pyroglutamylation state, and 1:500 Alexa647-conjugated anti-human CD47 clone CC2C6, which specifically detects pyroglutamylated CD47) for 2 hours at 4° C. Next, the cells were spun down and washed twice with 2×150 μL PBS/0.5% BSA to remove unbound antibody. Cells were again spun down and taken up in 300 μL FACS buffer before analysis on a Celesta FACS machine (BD Biosciences).
KBM7 cells (Kotecki et al., 1999) were infected with lentivirus produced by transfecting pSCNC-LentiCRISPR-QPCTL or pSCNC-LentiCRISPR-CD47 into HEK-293T cells according to standard protocols. After 24 hours incubation, cells were selected with puromycin (Invivogen, 1 μg/mL) for 48 hours. Cells were stained for total CD47 and pE-CD47 and QPCTL k.o. cells were sorted out as negative for pE-CD47, and CD47 k.o. cells as negative for total CD47, using a FACSAria III and FACS Diva software (BD Biosciences).
In order to test compounds for their effect on pyroglutamylation in live cells, 25000 KBM7 cells per well were seeded in a 96-well U-bottom plate in 150 μl IMDM/10% FCS/1% Pen/Strep medium and a 10-point 2-fold dilution range of test compounds. After 72 hours incubation at 37° C., 5% CO2, cells were stained for total CD47 and pE-CD47 and analyzed on a BD Celesta using FACS Diva software (BD Biosciences). Cells gated for DAPI negativity were recorded and the median fluorescence intensity (MFI) of each sample was transformed to linearly scale between the MFI's of wildtype and CD47 knockout cells (in case of the 2D3 antibody) and the wildtype and QPCTL knockout cells (in case of the CC2C6 antibody). IC50's were calculated by 3 parameter logistic regression of the CC2C6 signal vs. compound concentration, where the top of the sigmoidal curve was fixed at 1, using R and the drc package (http://www.r-project.org, https://cran.r-project.org/web/packages/drc/index.html).
With `Cc1c2c(nn1C)C(=O)N(c1ccc3[nH]cnc3c1)C2c1ccc(N2CCC(F)(F)C2)c(F)c1F` (stereo not shown) [FRPPO-066], the IC50 was 1 to 5 µM.

Staying with this test, now noted: Homo sapiens, KBM-7, 72 h, CC2C6 signal, Table 2, read-out: Cell Potency Assay 6 (Comparison Data).
Consider `CCCOc1ccc(C2c3c(nn(C)c3C)C(=O)N2c2ccc3[nH]cnc3c2)cc1` (racemic) [FRPPO-001], for which the IC50 is below 1 µM.

Take `CCCOc1ccc(C2c3c(nn(C)c3C)C(=O)N2c2ccc3nnn(C)c3c2)cc1` (racemic) [REF-001, reference compound]: the IC50 was above 6.25 µM.

For the molecule `CCCOc1ccc(C2c3c(nn(C)c3C)C(=O)N2c2cc(C)c3nnn(C)c3c2)cc1` (racemic) [REF-002, reference compound], the IC50 was above 6.25 µM.

With `CCCOc1ccc(C2c3c(nn(C)c3C)C(=O)N2c2ccc3nnc(C)n3c2)cc1` (racemic) [REF-003, reference compound], the IC50 was at least 50 µM.

In the case of `CCCOc1ccc(C2c3c(nn(C)c3C)C(=O)N2c2cc(C)c3nnc(C)n3c2)cc1` (racemic) [REF-004, reference compound], the IC50 was at least 50 µM.

`CCCOc1ccc(C2c3c(nn(C)c3C)C(=O)N2c2ccc3nncn3n2)cc1` (racemic) [REF-005, reference compound]: the IC50 is at least 50 µM.

On to `CCCOc1ccc(C2c3c(nn(C)c3C)C(=O)N2c2cc(C)c3nnc(C)n3n2)cc1` (racemic) [REF-006, reference compound], for which the IC50 was above 6.25 µM.

Regarding `CCCOc1ccc(C2c3c(nn(C)c3C)C(=O)N2c2ccc3nnn(C)c3n2)cc1` (racemic) [REF-007, reference compound], the IC50 was above 6.25 µM.

As to `CCCOc1ccc(C2c3c(nn(C)c3C)C(=O)N2c2cc(NC)c3nnc(C)n3n2)cc1` (racemic) [REF-008, reference compound], the IC50 is at least 50 µM.

Still in this test, the particulars now being: Homo sapiens, KBM-7, 72 h, CC2C6 signal, read-out: Cell Pot. Assay No. 6.
As for `CCCOc1ccc(C2c3c(nn(C)c3C)C(=O)N2c2ccc3[nH]cnc3c2)cc1` (racemic) [FRPPO-001], the IC50 is below 1 µM.

As for `CCCOc1ccc(C2c3c(C)nn(C)c3C(=O)N2c2ccc3[nH]cnc3c2)cc1` (stereo not shown) [FRPPO-002], the IC50 is 1 to 5 µM.

Regarding `Cc1c2c(nn1C)C(c1ccc(N3CCC(F)(F)C3)cc1F)N(c1ccc3[nH]cnc3c1)C2=O` (stereo not shown) [FRPPO-046], the IC50 lay in the range of 5 to 50 µM.

For `Cc1c2c(nn1C)C(c1ccc(Br)cc1F)N(c1ccc3[nH]cnc3c1)C2=O` (stereo not shown) [FRPPO-047], the IC50 is 5 to 50 µM.

In the case of `Cc1nn(C)c2c1C(=O)N(c1ccc3[nH]cnc3c1)C2c1ccc(N2CCC(F)(F)C2)cc1F` (stereo not shown) [FRPPO-049], the IC50 was below 1 µM.

Consider `Cn1nc(C(F)(F)F)c2c1C(c1ccc(N3CCC(F)(F)C3)cc1F)N(c1ccc3[nH]cnc3c1)C2=O` (stereo not shown) [FRPPO-050], for which the IC50 is 1 to 5 µM.

For `Cn1ncc2c1C(c1ccc(Cl)cc1F)N(c1ccc3[nH]cnc3c1)C2=O` (stereo not shown) [FRPPO-051], the IC50 was 1 to 5 µM.

On to `Cc1nn(C)c2c1C(=O)N(c1ccc3[nH]cnc3c1)C2c1ccc(Cl)cc1F` (stereo not shown) [FRPPO-052], for which the IC50 was 5 to 50 µM.

As to `Cn1nc(C(F)(F)F)c2c1C(c1ccc(Cl)cc1F)N(c1ccc3[nH]cnc3c1)C2=O` (stereo not shown) [FRPPO-053], the IC50 is 5 to 50 µM.

Regarding `O=C1c2scnc2C(c2ccc(N3CCC(F)(F)C3)cc2F)N1c1ccc2[nH]cnc2c1` (stereo not shown) [FRPPO-054], the IC50 fell in the range of 1 to 5 µM.

With `O=C1c2scnc2C(c2ccc(Cl)cc2F)N1c1ccc2[nH]cnc2c1` (stereo not shown) [FRPPO-057], the IC50 was in the range of 5 to 50 µM.

For `Cc1nc2c(s1)C(=O)N(c1ccc3[nH]cnc3c1)C2c1ccc(Cl)cc1F` (stereo not shown) [FRPPO-058], the IC50 lay within 5 to 50 µM.

As for `Cc1nc2c(s1)C(c1ccc(N3CCC(F)(F)C3)cc1F)N(c1ccc3[nH]cnc3c1)C2=O` (stereo not shown) [FRPPO-061], the IC50 was in the range of 1 to 5 µM.

`O=C1c2ncsc2C(c2ccc(Cl)cc2F)N1c1ccc2[nH]cnc2c1` (stereo not shown) [FRPPO-063]: the IC50 lay within 1 to 5 µM.

Take `Cc1nc2c(s1)C(c1ccc(Cl)cc1F)N(c1ccc3[nH]cnc3c1)C2=O` (stereo not shown) [FRPPO-064]: the IC50 is 5 to 50 µM.

For the molecule `Cc1c2c(nn1C)C(=O)N(c1ccc3[nH]cnc3c1)C2c1ccc(C#N)cc1F` (stereo not shown) [FRPPO-069], the IC50 was 1 to 5 µM.

Regarding `Cc1c2c(nn1C)C(=O)N(c1ccc3[nH]cnc3c1)C2c1ccc(N2CCC2)cc1F` (stereo not shown) [FRPPO-070], the IC50 lay within 1 to 5 µM.

As to `Cc1c2c(nn1C)C(=O)N(c1ccc3[nH]cnc3c1)C2c1ccc(N2CC(F)C2)cc1F` (stereo not shown) [FRPPO-072], the IC50 is below 1 µM.

(Values after US20230077723A1, “N-SUBSTITUTED-3,4-(FUSED 5-RING)-5-PHENYL-PYRROLIDINE-2-ONE COMPOUNDS AS INHIBITORS OF ISOQC AND/OR QC ENZYME” (Scenic Immunology B.V., priority 2019, published 2023).)
